Tests used:
[1] = target: human VMAT2 (Homo sapiens (Human), UniProt Q05940); test: VMAT2 radioligand binding, 3H-dihydrotetrabenazine competition on human platelet homogenate; conditions: 10 nM 3H-dihydrotetrabenazine, human platelet homogenate, 25° C., 90 minutes; read-out: VMAT2 Ki
Experimental: Examples of techniques for determining the capability of a compound to inhibit VMAT2 are provided below. The procedure was adapted from that described previously (see, e.g., Near, (1986), Mol. Pharmacol. 30: 252-57; Teng, et al., J. Neurochem. 71, 258-65, 1998). Homogenates from human platelets were prepared by homogenization and then washed by centrifugation as described previously (see, e.g., Hoare et al., (2003) Peptides 24:1881-97).
The human VMAT2 Ki values for the compounds listed in Table 15A and Table 15B were determined using the following procedures. Compound dilution series in DMSO were generated from either powder stocks by hand, or from DMSO stocks using serial dilution on a Vantage (Hamilton), or direct dilution using an Echo 655 (Beckman). In a total volume of 0.145 to 0.150 mL in low-binding 96-well plates (Corning #3605), twelve concentrations of test compound were competed against 10 nM ^3H-dihydrotetrabenezine (American Radiolabeled Chemicals) on human platelet homogenate (30 μg membrane protein per well) in VMAT2 binding buffer (Dulbecco's phosphate buffered saline, 1 mM EDTA, pH 7.4). Following incubation at 25° C. for 90 minutes, bound radioligand was collected by rapid filtration onto either GF/B or GF/C glass fiber filters, pretreated with 0.100 polyethylenimine, using either a Unifilter-96 Harvester (PerkinElmer) or Microlab Star (Hamilton). Following harvesting the filter plates were washed with 0.8 mL VMAT2 binding buffer, and bound radioligand was quantified by scintillation counting using a Topcount NXT or Microplate Counter Microbeta (PerkinElmer).

[2] = Stability of compounds in human liver microsomes; type: in vitro ADME; conditions: for CLint scaled at 0.5 μM / half-life at 0.5 μM: both sexes, pH 7.4; for CLint scaled at 0.5 μM: liver microsomes, calculated from HLM half-life, read-out: HLM Scaled Intrinsic Clearance; for CLint scaled at 0.5 μM / Predicted Max. Bioavailability (% F) / HLM Predicted Systemic Clearance: human; for half-life at 0.5 μM: 0.5 μM compound, 0.5 mg/mL human liver microsomes, 37° C., maxed at 420 minutes, read-out: HLM Elimination half-life (t1/2, min); for Predicted Max. Bioavailability (% F): predicted from HLM data; for HLM Predicted Systemic Clearance: scaled from HLM half-life (Obach method)
Experimental: A test compound (0.5 μM) was incubated with pooled mixed gender liver microsomes from humans (0.5 mg/mL total protein) at 37° C. in the presence of an NADPH-generating system containing 50 mM, pH 7.4 potassium phosphate buffer, 3 mM magnesium chloride, 1 mM EDTA, 1 mM NADP, 5 mM glusose-6-phosphate, and 1 Unit/mL glucose-6-phosphate dehydrogenase. All concentrations were relative to the final incubation volume of 125 μL. Incubations were conducted at 37° C. for 0, 5, 10, 20, 40, and 60 minutes in a water bath and terminated by rapid mixing with 150 μL of ice-cold acetonitrile containing internal standard. Precipitated proteins were removed by centrifugation prior to LC-MS/MS analysis. Aliquots of the resulting supernatant fractions were analyzed by LC-MS/MS monitoring for depletion of parent compound. The resultant peak area ratio versus time data was fitted to a non-linear regression using XLfit Scientific Curve Fitting Software (IDBS Ltd., Surrey, UK) and the elimination half-life (t1/2, min) was calculated from the slope. […] Additional values calculated included predicted extraction ratio and predicted maximum bioavailability.

human VMAT2, sequence (Q05940 whole entry): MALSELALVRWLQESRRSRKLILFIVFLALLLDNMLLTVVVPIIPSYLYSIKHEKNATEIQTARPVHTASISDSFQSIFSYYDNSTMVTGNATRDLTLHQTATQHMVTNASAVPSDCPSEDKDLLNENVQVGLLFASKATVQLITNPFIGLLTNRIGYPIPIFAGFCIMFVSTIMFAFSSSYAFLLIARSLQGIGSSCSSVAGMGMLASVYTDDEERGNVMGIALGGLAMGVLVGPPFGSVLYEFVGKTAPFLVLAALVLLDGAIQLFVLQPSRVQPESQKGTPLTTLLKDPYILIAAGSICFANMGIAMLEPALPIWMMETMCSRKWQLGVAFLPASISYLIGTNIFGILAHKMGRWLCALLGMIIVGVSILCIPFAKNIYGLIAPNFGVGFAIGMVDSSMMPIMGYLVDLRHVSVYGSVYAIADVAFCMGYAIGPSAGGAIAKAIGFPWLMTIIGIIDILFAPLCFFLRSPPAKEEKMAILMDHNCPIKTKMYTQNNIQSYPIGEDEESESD

Row | Compound | Ki [1] | CLint scaled at 0.5 μM [2] | half-life at 0.5 μM [2] | Predicted Max. Bioavailability (% F) [2] | HLM Predicted Systemic Clearance [2]
1 | COc1cc2c(cc1OCCC(F)(F)F)CCN1C[C@H](CC(C)(C)C)[C@@H](O)C[C@@H]21 [Compound 4-9, (2S,3S,11bS)-3-(2,2-dimethylpropyl)-10-methoxy-9-(3,3,3-trifluoropropoxy)-1H,2H,3H,4H,6H,7H,11bH-pyrido[2,1-a]isoquinolin-2-ol] | 277 nM | ≤ 2.97 mL/min/kg | ≥ 420 min | ≥87 % F | ≤2.59 mL/min/kg
2 | COc1cc2c(cc1OCC(F)F)CCN1C[C@@H](CC(C)(C)C)[C@@H](O)C[C@H]21 [Compound 4-10, (2S,3R,11bR)-9-(2,2-difluoroethoxy)-3-(2,2-dimethylpropyl)-10-methoxy-1H,2H,3H,4H,6H,7H,11bH-pyrido[2,1-a]isoquinolin-2-ol] | 15 nM | 3.65 mL/min/kg | 342 min | 85 % F | 3.09 mL/min/kg
3 | COc1cc2c(cc1OCC(C)(F)F)CCN1C[C@@H](CC(C)(C)C)[C@@H](O)C[C@H]21 [Compound 4-11, (2S,3R,11bR)-9-(2,2-difluoropropoxy)-3-(2,2-dimethylpropyl)-10-methoxy-1H,2H,3H,4H,6H,7H,11bH-pyrido[2,1-a]isoquinolin-2-ol] | 14 nM | ≤ 2.97 mL/min/kg | ≥ 420 min | ≥87 % F | ≤2.59 mL/min/kg
4 | COc1cc2c(cc1OCCC(F)(F)F)CCN1C[C@@H](CC(C)(C)C)[C@@H](O)C[C@H]21 [Compound 4-12, (2S,3R,11bR)-3-(2,2-dimethylpropyl)-10-methoxy-9-(3,3,3-trifluoropropoxy)-1H,2H,3H,4H,6H,7H,11bH-pyrido[2,1-a]isoquinolin-2-ol] | 3.4 nM | ≤ 2.97 mL/min/kg | ≥ 420 min | ≥87 % F | ≤2.59 mL/min/kg
5 | COc1cc2c(cc1OCC(F)F)CCN1C[C@@H](CC(C)(C)C)[C@H](O)C[C@H]21 [Compound 4-13, (2R,3R,11bR)-9-(2,2-difluoroethoxy)-3-(2,2-dimethylpropyl)-10-methoxy-1H,2H,3H,4H,6H,7H,11bH-pyrido[2,1-a]isoquinolin-2-ol] | 2.2 nM | ≤ 2.97 mL/min/kg | ≥ 420 min | ≥87 % F | ≤2.59 mL/min/kg
6 | COc1cc2c(cc1OCC(C)(F)F)CCN1C[C@@H](CC(C)(C)C)[C@H](O)C[C@H]21 [Compound 4-14, (2R,3R,11bR)-9-(2,2-difluoropropoxy)-3-(2,2-dimethylpropyl)-10-methoxy-1H,2H,3H,4H,6H,7H,11bH-pyrido[2,1-a]isoquinolin-2-ol] | 2.6 nM | ≤ 2.97 mL/min/kg | ≥ 420 min | ≥87 % F | ≤2.59 mL/min/kg
7 | COc1cc2c(cc1OCC(F)(F)F)CCN1C[C@@H](CC(C)(C)C)[C@@H](O)C[C@H]21 [Compound 4-16, (2S,3R,11bR)-3-(2,2-dimethylpropyl)-10-methoxy-9-(2,2,2-trifluoroethoxy)-1H,2H,3H,4H,6H,7H,11bH-pyrido[2,1-a]isoquinolin-2-ol] | 22 nM | ≤ 2.97 mL/min/kg | ≥ 420 min | ≥87 % F | ≤2.59 mL/min/kg
8 | CCOc1cc2c(cc1OC)[C@H]1C[C@@H](O)[C@H](CC(C)(C)C)CN1CC2 [Compound 4-17, (2R,3R,11bR)-3-(2,2-dimethylpropyl)-9-ethoxy-10-methoxy-1H,2H,3H,4H,6H,7H,11bH-pyrido[2,1-a]isoquinolin-2-ol] | 1.1 nM | 32.9 mL/min/kg | 38 min | 38 % F | 12.44 mL/min/kg
9 | COc1cc2c(cc1OCCF)CCN1C[C@@H](CC(C)(C)C)[C@H](O)C[C@H]21 [Compound 4-18, (2R,3R,11bR)-3-(2,2-dimethylpropyl)-9-(2-fluoroethoxy)-10-methoxy-1H,2H,3H,4H,6H,7H,11bH-pyrido[2,1-a]isoquinolin-2-ol] | 5.5 nM | 8.05 mL/min/kg | 155 min | 71 % F | 5.74 mL/min/kg
10 | COc1cc2c(cc1OCC1(F)COC1)CCN1C[C@@H](CC(C)(C)C)[C@H](O)C[C@H]21 [Compound 4-19, (2R,3R,11bR)-3-(2,2-dimethylpropyl)-9-[(3-fluorooxetan-3-yl)methoxy]-10-methoxy-1H,2H,3H,4H,6H,7H,11bH-pyrido[2,1-a]isoquinolin-2-ol] | 8.1 nM | 14.2 mL/min/kg | 88 min | 59 % F | 8.3 mL/min/kg
11 | COc1cc2c(cc1OCC1COC1)CCN1C[C@@H](CC(C)(C)C)[C@H](O)C[C@H]21 [Compound 4-22, (2R,3R,11bR)-3-(2,2-dimethylpropyl)-10-methoxy-9-(oxetan-3-ylmethoxy)-1H,2H,3H,4H,6H,7H,11bH-pyrido[2,1-a]isoquinolin-2-ol] | 14 nM | 9.6 mL/min/kg | 130 min | 68 % F | 6.49 mL/min/kg
12 | COc1cc2c(cc1OCC1(OS(C)(=O)=O)CC1)CCN1C[C@@H](CC(C)(C)C)[C@H](O)C[C@H]21 [Compound 4-94, 1-({[(2R,3R,11bR)-3-(2,2-dimethylpropyl)-2-hydroxy-10-methoxy-1H,2H,3H,4H,6H,7H,11bH-pyrido[2,1-a]isoquinolin-9-yl]oxy}methyl)cyclopropyl methanesulfonate] | 387 nM |  |  |  | 
13 | COc1cc2c(cc1OCc1ncno1)CCN1C[C@@H](CC(C)(C)C)[C@H](O)C[C@H]21 [Compound 4-95, (2R,3R,11bR)-3-(2,2-dimethylpropyl)-10-methoxy-9-(1,2,4-oxadiazol-5-ylmethoxy)-1H,2H,3H,4H,6H,7H,11bH-pyrido[2,1-a]isoquinolin-2-ol] | > 10000 nM |  |  |  | 
14 | COc1cc2c(cc1OCC1(S(C)(=O)=O)CC1)CCN1C[C@@H](CC(C)(C)C)[C@H](O)C[C@H]21 [Compound 4-96, (2R,3R,11bR)-3-(2,2-dimethylpropyl)-9-[(1-methanesulfonylcyclo-propyl)methoxy]-10-methoxy-1H,2H,3H,4H,6H,7H,11bH-pyrido[2,1-a]isoquinolin-2-ol] | > 10000 nM |  |  |  | 
15 | COc1cc2c(cc1OCC1CCS(=O)(=O)CC1)CCN1C[C@@H](CC(C)(C)C)[C@H](O)C[C@H]21 [Compound 4-97, 4-({[(2R,3R,11bR)-3-(2,2-dimethylpropyl)-2-hydroxy-10-methoxy-1H,2H,3H,4H,6H,7H,11bH-pyrido[2,1-a]isoquinolin-9-yl]oxy}methyl)-1λ^6-thiane-1,1-dione] | > 10000 nM |  |  |  | 
16 | COc1cc2c(cc1OC)[C@@H]1C[C@H](O)[C@@H](CC(C)(C)C)CN1CC2 [Compound 5-3, (2S,3S,11bS)-3-(2,2-dimethylpropyl)-9,10-dimethoxy-1H,2H,3H,4H,6H,7H,11bH-pyrido[2,1-a]isoquinolin-2-ol] | 700 nM |  |  |  | 
17 | COc1cc2c(cc1OC)[C@@H]1C[C@@H](O)[C@@H](CC(C)(C)C)CN1CC2 [Compound 5-4, (2R,3S,11bS)-3-(2,2-dimethylpropyl)-9,10-dimethoxy-1H,2H,3H,4H,6H,7H,11bH-pyrido[2,1-a]isoquinolin-2-ol] | > 10000 nM |  |  |  | 
